Reference: the supplement of paper PMC11061612

How the values were obtained:
Test in all cases: Bliss excess, mean over the matrix (fraction); higher = more synergy
42-MG-BA (Glioblastoma) = tested on: 42-MG-BA (Glioblastoma)
Outline: (§1)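 After 24 hours at 37°C and 5% CO2 in 1536-well plates, cells in DMEM/F12 or RPMI plus 10% FBS received two-drug dose matrices for 72 hours. Viability came from CellTiter-Glo 2.0 luminescence and was scaled as inhibition, anchored at 0 by vehicle wells and at 1 by blank wells. Combination Emax is taken as the second-highest inhibition in the matrix, and Bliss excess as the observed combination effect less EA + EB − EA·EB, with EA and EB the single-agent effects.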

AGS (Gastric Carcinoma) = tested on: AGS (Gastric Carcinoma)
Outline: as §1

[1] = tested on: COLO-205 (Colorectal Carcinoma)
Outline: as §1

[2] = tested on: DEL (T-Cell Non-Hodgkin's Lymphoma)
Outline: as §1

[3] = tested on: DoTc2-4510 (Cervical Carcinoma)
Outline: as §1

[4] = tested on: EC-GI-10 (Esophageal Squamous Cell Carcinoma)
Outline: as §1

ES4 (Ewing's Sarcoma) = tested on: ES4 (Ewing's Sarcoma)
Outline: as §1

[5] = tested on: HCC-78 (Lung Adenocarcinoma)
Outline: as §1

[6] = tested on: HO-1-N-1 (Oral Cavity Carcinoma)
Outline: as §1

[7] = tested on: LU-135 (Small Cell Lung Carcinoma)
Outline: as §1

[8] = tested on: ME-1 (Acute Myeloid Leukemia)
Outline: as §1

[9] = tested on: NCI-H82 (Small Cell Lung Carcinoma)
Outline: as §1

[10] = tested on: Ramos-2G6-4C10 (Burkitt's Lymphoma)
Outline: as §1

[11] = tested on: SK-ES-1 (Ewing's Sarcoma)
Outline: as §1

[12] = tested on: SNU-5 (Gastric Carcinoma)
Outline: as §1

T98G (Glioblastoma) = tested on: T98G (Glioblastoma)
Outline: as §1

[13] = tested on: TCCSUP (Bladder Carcinoma)
Outline: as §1

[14] = tested on: TE-15 (Esophageal Squamous Cell Carcinoma)
Outline: as §1

[15] = tested on: TE-9 (Esophageal Squamous Cell Carcinoma)
Outline: as §1

[16] = tested on: UM-UC-3 (Bladder Carcinoma)
Outline: as §1

Row | SMILES | Bliss excess (42-MG-BA (Glioblastoma)) | Bliss excess (AGS (Gastric Carcinoma)) | Bliss excess [1] | Bliss excess [2] | Bliss excess [3] | Bliss excess [4] | Bliss excess (ES4 (Ewing's Sarcoma)) | Bliss excess [5] | Bliss excess [6] | Bliss excess [7] | Bliss excess [8] | Bliss excess [9] | Bliss excess [10] | Bliss excess [11] | Bliss excess [12] | Bliss excess (T98G (Glioblastoma)) | Bliss excess [13] | Bliss excess [14] | Bliss excess [15] | Bliss excess [16]
1 | CC1(C)CCC(CN2CCN(c3ccc(C(=O)NS(=O)(=O)c4ccc(NCC5CCOCC5)c([N+](=O)[O-])c4)c(Oc4cnc5[nH]ccc5c4)c3)CC2)=C(c2ccc(Cl)cc2)C1 [Venetoclax] + COc1cc(Nc2ncc3c(n2)-c2ccc(Cl)cc2C(c2c(F)cccc2OC)=NC3)ccc1C(=O)O [Alisertib] (first compound max 1 µM, 7x7, partner max 10 µM) | 0.0468 | 0.0353 | -0.0172 | 0.0094 | -0.0367 | 0.0164 | -0.0349 | 0.0127 | -0.0846 | -0.0236 | 0.0669 | 0.0328 | 0.0209 | 0.097 | -0.0218 | -0.0205 | -0.0341 | 0.0102 | 0.0148 | 0.0184
2 | Cc1c2c(nn1C)CSCc1cc(n(C)n1)CSc1cc(c3ccccc3c1)OCCCc1c(C(=O)O)n(C)c3c-2c(Cl)ccc13 [AZD5991] + CN(C)CCCOc1ccc(-c2ccc3ncc4c(c3c2)n(C2CCOCC2)c(=O)n4C)cn1 [AZD0156] (first compound max 1 µM, 7x7, partner max 1 µM) | 0.0259 | -0.0258 | 0.0261 | -0.0174 | 0.0422 | 0.0487 | 0.0042 | -0.0059 | -0.0044 | -0.0413 | 0.0237 | -0.0207 | 0.0226 | -0.004 | 0.0154 | 0.008 | -0.0332 | 0.0128 | -0.0529 | -0.0084
3 | CN(C)CCCOc1ccc(-c2ccc3ncc4c(c3c2)n(C2CCOCC2)c(=O)n4C)cn1 [AZD0156] + O=C(c1cc(Cc2n[nH]c(=O)c3ccccc23)ccc1F)N1CCN(C(=O)C2CC2)CC1 [Olaparib] (first compound max 3 µM, partner max 3 µM) | 0.0602 | 0.0736 | 0.125 | 0.312 | -0.043 | 0.0772 | 0.116 | 0.109 | 0.0618 | 0.0632 | -0.0065 | 0.0369 | 0.0928 | 0.393 | 0.015 | -0.0085 | 0.0405 | 0.0576 | 0.109 | 0.0739
4 | C=CCn1c(=O)c2cnc(Nc3ccc(N4CCN(C)CC4)cc3)nc2n1-c1cccc(C(C)(C)O)n1 [AZD1775] + C1CN(CCC1(C(=O)N[C@@H](CCO)C2=CC=C(C=C2)Cl)N)C3=NC=NC4=C3C=CN4 [Capivasertib] (first compound max 3 µM, partner max 3 µM) | -0.0419 | 0.0159 | 0.102 | 0.0666 | 0.0408 | 0.0203 | 0.0691 | -0.0672 | 0.0595 | 0.0467 | -0.0726 | 0.003 | 0.0099 | 0.0726 | -0.0655 | 0.0076 | 0.0046 | 0.0494 | -0.002 | 0.0405
5 | CC(=O)c1c(C)c2cnc(Nc3ccc(N4CCNCC4)cn3)nc2n(C2CCCC2)c1=O [Palbociclib] + Cn1cnc2c(F)c(Nc3ccc(Br)cc3Cl)c(C(=O)NOCCO)cc21 [Selumetinib] (first compound max 10 µM, 7x7, partner max 10 µM) | -0.0776 | -0.0123 | -0.081 | 0.0224 | -0.0384 | -0.0407 | -0.0359 | -0.0189 | 0.0927 | 0.0056 | -0.0321 | -0.0216 | -0.023 | -0.0161 | 0.0031 | -0.0103 | -0.0438 | 0.0179 | 0.0099 | -0.0001
6 | CN(CCO)CC[C@H](CSc1ccccc1)Nc1ccc(S(=O)(=O)NC(=O)c2ccc(N3CCC([C@@H](O)c4ccccc4-c4ccc(Cl)cc4)CC3)cc2)cc1S(=O)(=O)C(F)(F)F [AZD4320] + C1CN(CCC1(C(=O)N[C@@H](CCO)C2=CC=C(C=C2)Cl)N)C3=NC=NC4=C3C=CN4 [Capivasertib] (first compound max 1 µM, 7x7, partner max 3 µM) | -0.0479 | -0.0081 | -0.0031 | -0.0028 | 0.0501 | 0.0003 | -0.0333 | -0.034 | -0.0187 | 0.0051 | -0.0374 | 0.0177 | 0.038 | 0.0827 | -0.0453 | -0.0371 | -0.0568 | -0.042 | 0.0169 | -0.0228
